# Data taken from patent publication US20240277798A1, “CYCLOSPORINE COMPOSITIONS AND METHODS OF USE” (Bacainn Biotherapeutics, Ltd., priority 2021, published 2024).
# Test system: human neutrophils
# Experiment: PMN transmigration assay (Salmonella typhimurium-infected T84 monolayer, HXA3/MRP2-driven neutrophil migration, MPO readout)
# Assay type: cell-based
# Conditions: dose of 100 nM, result in words
# Method: PMN transmigration assay. T84 colorectal cancer cells were grown to confluence on the bottom side of 12 well polycarbonate membrane inserts of a 24 well Transwell® plate. The confluent growth of these epithelial cells results in physiologically-relevant apical (luminal) and basolateral surfaces in the transwells. […] The monolayer was then infected on the apical surface with Salmonella typhimurium for 2 hours to induce hepoxilin A3 (HXA3) efflux through the MRP2 membrane protein and into the apical chamber. […] Freshly isolated and prepared human neutrophils were then added to the basolateral side and allowed to transmigrate through the monolayer for 2 hours. The number of neutrophils migrated to the apical chamber (due to the HXA3 gradient) was then assayed by determination of myeloperoxidase activity (a neutrophil biomarker). Inhibition of transmigration is indicated by lower MPO activity in the apical chamber.
structure (smiles),measurement,value
CC[C@@H]1NC(=O)[C@H]([C@H](O)[C@H](C)CCCCC(=O)O)N(C)C(=O)[C@H](C(C)C)N(C)C(=O)[C@H](CC(C)C)N(C)C(=O)[C@H](CC(C)C)N(C)C(=O)[C@@H](C)NC(=O)[C@H](C)NC(=O)[C@H](CC(C)C)N(C)C(=O)[C@H](C(C)C)NC(=O)[C@H](CC(C)C)N(C)C(=O)CN(C)C1=O [BT122],inhibition of neutrophil migration,exhibit inhibition
CC[C@@H]1NC(=O)[C@H]([C@H](O)[C@H](C)CCCCCCC(=O)O)N(C)C(=O)[C@H](C(C)C)N(C)C(=O)[C@H](CC(C)C)N(C)C(=O)[C@H](CC(C)C)N(C)C(=O)[C@@H](C)NC(=O)[C@H](C)NC(=O)[C@H](CC(C)C)N(C)C(=O)[C@H](C(C)C)NC(=O)[C@H](CC(C)C)N(C)C(=O)CN(C)C1=O [BT125],inhibition of neutrophil migration,exhibit inhibition
